Laboratory results from patent publication US10815275B2, “Antimicrobial peptoids with improved selectivity and use thereof” (priority 2018, dated 2020).
Converted amounts (≈) assume the structure as drawn. Non-standard residues stand in square brackets, D forms with d. Residues, ends and D or L forms follow the SMILES beside them. Nspe = C[C@H](NCC(=O)O)c1ccccc1; Nlys = NCCCCNCC(=O)O

Columns and labels:
Type in all cases: cell-based
[1] = test system: S. aureus strain KCTC1621; conditions: strain KCTC1621
Summary of the method: (§1)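 Broth microdilution in cation-adjusted Mueller Hinton Broth used 2×10^5 CFU/mL in medium with 0.2% BSA and 0.01% acetic acid. Peptoids were 2-fold serially diluted, and plates were incubated 18 hours at 37° C. with absorbance read at 600 nm. MIC was the lowest concentration completely suppressing growth, averaged over three independent experiments; MBC was also determined.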

E. coli strain ATCC25922 = conditions: strain ATCC25922
Summary of the method: as §1

S. aureus (ATCC25923) = assay: MIC in multidrug-resistant bacteria panel, modified microdilution; conditions: overnight, 37° C.
Method: (§2) Minimum inhibitory concentrations of the prepared peptoids for multidrug-resistant bacteria were measured using a modified microdilution method in Difco Mueller Hinton medium, and tests were done on a panel of bacterial pathogens which have resistance and tolerance against common antibiotics.
(§3) Briefly, a peptoid concentrate, which is 10-fold more concentrated than a final concentration, was serially diluted with a medium containing 0.2% bovine serum albumin and 0.01% acetic acid. 10 μL of the 10-fold concentrated peptoid concentrate and 90 μL of Muller Hinton medium were added to each well of a 96-well polypropylene microtitre plate. Bacteria were added to the plate so that a final concentration thereof was 2×10^5 CFU/mL, and then incubated overnight at a temperature of 37° C. The minimum inhibitory concentration was defined as a concentration at which no bacterial growth is observed.

[2] = test system: S. epidermidis (ET-024 MRSA); assay: as above; conditions: overnight, 37° C.
Method: as §2, §3

E. coli (63103 ESBL) = assay: as above; conditions: overnight, 37° C.
Method: as §2, §3

## C[C@@H](c1ccccc1)N(CC(N)=O)C(=O)CN(C(=O)CN(CCCCN)C(=O)CN(C(=O)CN(C(=O)CN(CCCCN)C(=O)CN(C(=O)CN(C(=O)CN(CCCCN)C(=O)CN(C(=O)CN(C(=O)CNCCCCN)[C@@H](C)c1ccccc1)[C@@H](C)c1ccccc1)[C@@H](C)c1ccccc1)[C@@H](C)c1ccccc1)[C@@H](C)c1ccccc1)[C@@H](C)c1ccccc1)[C@@H](C)c1ccccc1 [compound 1] (H-[Nlys][Nspe][Nspe][Nlys][Nspe][Nspe][Nlys][Nspe][Nspe][Nlys][Nspe][Nspe]-NH2)
[1]
  MBC S. aureus: 1.6 µM (≈ 2.91 µg/mL)
E. coli strain ATCC25922
  MBC E. coli: 3.1 µM (≈ 5.64 µg/mL)
S. aureus (ATCC25923)
  minimum inhibitory concentration S. aureus (ATCC25923): 1.6
[2]
  minimum inhibitory concentration S. epidermidis (ET-024 MRSA): <0.8 to 0.8
E. coli (63103 ESBL)
  minimum inhibitory concentration E. coli (63103 ESBL): 1.6
